From US20150051192A1, “BLOCKING OF CUE-INDUCED DRUG REINSTATEMENT” (ALBANY MEDICAL COLLEGE, priority 2012, published 2015)
Entries after “also recorded” stand apart in the source; their conditions may differ. Read-outs that look alike come from different tables or passages of the source.

What was measured:
[1] = tested on: study animals; settings: cited from earlier work
[2] = tested on: study animals; settings: cited from earlier work; remark: listed apart in the source
[3] = tested on: female Sprague-Dawley rats; assay: Musical cue-induced reinstatement of cocaine seeking (Experiment 3); type: in vivo, rat; settings: 18-MC 40 mg/kg i.p. 20 minutes prior to reinstatement test session, vs saline
Text: Naïve female Sprague-Dawley rats (Taconic Germantown, N.Y.), weighing approximately 250 g at the start of the experiments, were housed individually in a temperature and humidity controlled colony room under a standard 12:12 light/dark cycle. Food and water were provided ad libitum. Protocols were designed and implemented in accordance with the “Guide for the Care and Use of Laboratory Animals” (1996) and were approved by the Institutional Animal Care and Use Committee of Albany Medical College. Rats were given one week of acclimation prior to experimental procedures.
Cocaine hydrochloride (˜0.4 mg/kg/infusion, Sigma-Aldrich, St. Louis, Mo.) was dissolved in 0.9% sodium chloride with a 2 mg/ml drug to saline ratio, and then brought to a neutral physiological pH before use in intravenous (i.v.) self-administration sessions. 18-MC (40 mg/kg, Obiter Research LLC. Champaign, Ill.) and saline were both administered intraperitoneally (i.p.). Animals were anesthetized with sodium pentobarbital (50 mg/kg, i.p.) for both intrajugular and microdialysis cannulation surgeries. Sodium methohexital (10 mg/kg) was used to verify catheter patency. All other reagents used in conjunction with microdialysis experiments were obtained from local suppliers and were of analytical grade.
Miles Davis' “Four” (Prestige Blue Haze, 1954) was the musical track used as a contextual cue in these experiments. The Miles Davis selection was chosen because it had been used successfully in past conditioning paradigms in our laboratory (Polston et al, 2011b). This musical selection was originally chosen because it has a repetitive beat and melody, helping to make it easily recognizable and identifiable. During drug training, self-administration, and applicable test sessions, “Four” was played on a continuous loop, at a volume staying between 65 and 75 decibels. This decibel range was chosen because it had been used successfully in past investigations involving rats and music (Feduccia et al, 2008; Otsuka et al, 2009; Polston et al, 2011b).
Experiments were conducted in rat operant conditioning chambers (ENV-009, Med Associates, St. Albans, Vt.) located within sound attenuated boxes outfitted with acoustical foam. The operant boxes were continuously ventilated with a house fan, and equipped with two retractable levers spaced approximately 20 cm apart on the front wall, with a house light mounted on the back wall of the test chamber. […] By operationally defining the floor (30.5 cm×31.8 cm) of the test chamber, and dividing it into three spatial zones, the program automatically generated detailed readings of the time spent in each zone in seconds and the distance that the animal traveled in meters. […] Videos were also periodically recorded and analyzed to ensure that Anymaze was functioning correctly. […]

[4] = tested on: rats; settings: compared to saline treated rats; cited from earlier work
[5] = in vivo, cited from earlier work
[6] = tested on: rats; settings: cited from earlier work

In the case of `COCC[C@H]1CC2CN3CCc4c([nH]c5ccccc45)[C@](C(=O)OC)(C2)[C@H]13` [18-MC, 18-Methoxycoronaridine], the “effect on drug self-administration” value ([1]; 10 μg administered into the interpeduncular nucleus) is given as “effective”, the “effect on drug self-administration” value ([1]; 10 μg administered into the ventral tegmental area) is given as “no effect” and the “morphine, methamphetamine, and nicotine self-administration” value ([1]; locally administered into the medial habenula) is given as “decreased”. The “sensitized dopamine responses in the nucleus accumbens” value ([2]; local administration into both the medial habenula and the interpeduncular nucleus) was “produced similar results”, the “sensitized dopamine responses to both morphine and cocaine in the nucleus accumbens” value ([2]; systemic 18-MC 40 mg/kg pretreatment 19 hours beforehand, chronic dosing models) was “abolished” and the “time spent in the inactive or back zones, reinstatement test session” value ([3]; inactive p=0.488, back p=0.082) was “no effect of Treatment”. The “active lever responses on the reinstatement test day” value ([3]; musical cue, p<0.001) was “significantly fewer active lever responses; also recorded: significantly attenuated responses”, the “time spent in the active zone, reinstatement test session” value ([3]; p<0.01) was “significant decrease; also recorded: significantly decreased” and the “locomotor activity on the reinstatement test day” value ([3]; p=0.143) was “no significant differences between groups; also recorded: produced no changes in locomotor activity”. For the same compound, the locomotor effects alone [4] was “produces no locomotor effects alone”, the “acquisition of a cocaine conditioned place preference” value [5] was “able to block the acquisition” and the “acquisition of a cocaine conditioned place preference” value ([5]; listed as 18MC) was “block acquisition”. The “nicotine, cocaine, morphine, methamphetamine, and ethanol self-administration” value [6] was “reduce”.
